Assays:
[1] = molecular target: TRPM8 receptors; details: previous in vitro studies; read-out: antagonistic potencies (IC50) for TRPM8 receptors; cited from earlier work
[2] = tested on: vagus ganglion neurons (VGNs); test: Ca2+ imaging (Fluo-3) of acutely dissociated vagus ganglion neurons; type: cell-based, rat
Experimental: In one embodiment, retrograde labeling of vagus ganglions or bronchopulmonary tissues is performed on a murine or rat model. […] Instillation of the nerve tracing dye in the lower part of mice trachea was performed and, after 7 days, the mice (or rats) were sacrificed and the vagus ganglions were harvested, dissociated, and plated in dishes. Calcium-imaging approach was then used to identify bronchopulmonary vagus afferent neuron response to cold and menthol. […] All the data were represented as mean ±SEM. Paired-t tests were used for statistical comparison, and significance was considered at the p<0.05. To perform calcium imaging, VGNs were incubated with 2 μM Fluo3-AM in 20% pluronic acid (Molecular Probes, Eugene, Oreg.) for 30 min at 37° C. to load Ca^2+ indicator. The cells were then perfused with normal bath solution flowing at 1 ml/min in a 0.5 ml chamber. The normal bath solution contained (in mM): 150 NaCl, 5 KCl, 2 MgCl2, 2 CaCl2, 10 glucose, 10 HEPES, pH 7.2, osmolarity adjusted to 320 mOsm with sucrose. Fluo-3 fluorescence in the cells was detected using a peltier-cooled charge-coupled device (CCD) camera (PentaMAX-III System, Roper Scientific, Trenton, N.J.) under a fluorescent microscope (10× objective). Excitation was at 450 nm and emission at 550 nm, achieved by a fluorescence filter sets. Images were taken at one frame per second, and digitized using MetaFluor software (Universal Imaging Corporation). Unless otherwise indicated, all experiments were carried out at an ambient temperature of 26° C. Effects of cold on intracellular Ca^2+ levels were tested by application of a cold bath solution, which yield temperature drop from 26° C. to 19° C. within 1 min in the recording chamber. […] In a related embodiment, Adult Sprague-Dawley rats (200 to 300 g, n=48) were used according to the Institutional Animal Care and Use Committee guideline of the University of Florida. The rats were continuously anesthetized with isoflurane using an anaesthetizing machine. To retrograde label the vagus ganglion neurons that innervate low airway tissues, a 20 μl-DiI was instilled into the caudal region of the trachea in living adult rats (see FIG. 1a, which illustrates the instillation of DiI into the lower segment of rat trachea to retrograde label airway VGNs). The animals were positioned supine during dye instillation and kept the same position for 30 min before recovery from anesthesia. […] The neurons were plated on glass coverslips previously covered with PDL and used within 4 hours after plating.

[3] = tested on: vagus ganglion neurons (VGNs); test: Whole-cell patch-clamp recordings (voltage-clamp and current-clamp) on menthol-responsive VGNs; type: cell-based, rat
[4] = tested on: rats; test: Inhalation of menthol, respiratory reaction; type: in vivo, rat
[5] = molecular target: T1, TRPM8 receptors (Rattus norvegicus, UniProt Q8R455); test: TRPM8 expression in cultured sensory neurons in the presence of NGF; type: cell-based; details: NGF present
T1 construct: increase in number of TRPM8-expressing neurons in cell culture when in the presence of nerve growth factor (NGF); endogenous in cells; host or cells: cultured sensory neurons
Description: Inflammation in lung tissues often can result in the increases the levels of nerve growth factor (NGF). […] Upregulation of TRPM8 receptors on these nerves can sensitize their responses to cold stimulation. FIGS. 8a and 8b illustrate the numbers of TRPM8 expression neurons and the responsiveness of these neurons to the TRPM8 ligand menthol. Specifically, FIG. 8a is a graphical illustration of an increase in number of TRPM8-expressing neurons in cell culture when in the presence of nerve growth factor (NGF). […] is a graphical illustration of the response of TRPM8-expressing neurons to the TRPM8 receptor agonist menthol when cultured in the presence or absence of NGF. The one day cultures were used in the absence of NGF.
Inflammatory reactions in bronchopulmonary tissues of asthma animals are known to result in an increased level of nerve growth factor (NGF). […] An up-regulation of TRPM8 receptors in inflammatory bronchopulmonary tissues will make animals more susceptible to cold.

T1 sequence (Q8R455 whole entry): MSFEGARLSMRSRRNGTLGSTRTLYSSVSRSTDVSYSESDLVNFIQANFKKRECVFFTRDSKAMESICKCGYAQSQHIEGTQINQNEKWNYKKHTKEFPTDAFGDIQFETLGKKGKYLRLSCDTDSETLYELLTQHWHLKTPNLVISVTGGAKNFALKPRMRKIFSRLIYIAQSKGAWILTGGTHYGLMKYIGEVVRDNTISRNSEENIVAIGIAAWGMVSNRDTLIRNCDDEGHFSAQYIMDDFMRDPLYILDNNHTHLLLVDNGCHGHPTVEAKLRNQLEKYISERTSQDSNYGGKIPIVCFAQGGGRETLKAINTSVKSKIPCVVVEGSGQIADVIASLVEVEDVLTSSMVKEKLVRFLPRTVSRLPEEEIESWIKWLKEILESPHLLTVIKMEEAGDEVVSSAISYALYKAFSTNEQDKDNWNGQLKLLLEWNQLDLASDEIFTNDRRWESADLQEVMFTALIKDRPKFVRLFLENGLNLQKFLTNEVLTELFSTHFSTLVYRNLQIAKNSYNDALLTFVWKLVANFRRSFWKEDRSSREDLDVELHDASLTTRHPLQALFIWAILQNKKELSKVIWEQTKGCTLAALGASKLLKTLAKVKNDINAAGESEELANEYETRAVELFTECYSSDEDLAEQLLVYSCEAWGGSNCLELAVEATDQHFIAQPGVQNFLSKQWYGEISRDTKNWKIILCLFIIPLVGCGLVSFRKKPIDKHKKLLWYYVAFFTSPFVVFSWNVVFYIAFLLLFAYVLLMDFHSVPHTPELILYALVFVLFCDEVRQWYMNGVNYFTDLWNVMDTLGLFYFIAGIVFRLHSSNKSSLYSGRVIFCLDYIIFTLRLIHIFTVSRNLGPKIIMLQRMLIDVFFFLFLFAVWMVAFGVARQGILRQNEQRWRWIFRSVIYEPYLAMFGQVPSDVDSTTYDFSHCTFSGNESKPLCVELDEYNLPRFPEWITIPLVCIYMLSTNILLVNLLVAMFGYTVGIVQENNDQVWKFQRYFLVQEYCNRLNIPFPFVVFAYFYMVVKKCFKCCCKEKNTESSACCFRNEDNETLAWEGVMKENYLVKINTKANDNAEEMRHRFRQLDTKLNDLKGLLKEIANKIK

Compound: NCCOB(c1ccccc1)c1ccccc1 [2-APB, 2-aminoethoxydiphenyl borate]
- IC50 [1]: ~50 µM

Compound: Nc1ncnc2c1ncn2[C@@H]1O[C@H](COP(=O)(O)OP(=O)(O)OP(=O)(O)O)[C@@H](O)[C@H]1O [ATP]
- ATP sensitivity of menthol-responsive VGNs ([2]; Ca2+ imaging, menthol and ATP responses): almost all menthol-responsive VGNs were ATP-sensitive

Compound: CC(C)(C)c1ccc(NC(=O)N2CCN(c3ncccc3Cl)CC2)cc1 [BCTC, N-(4-Tertiarybutylphenyl)-4-(3-cholorphyridin-2-yl)tetrahydropyrazine-1(2H)-carbox-amide]
- IC50 [1]: 0.8 ± 1 µM

Compound: Oc1cc2c(cc1O)CN(C(=S)NCCc1ccc(Cl)cc1)CCC2 [capsazepine]
- IC50 [1]: 18 ± 1.1 µM

Compound: CC1CCC(C(C)C)C(O)C1 (stereo not shown) [menthol]
- DiI-labeled cells both menthol- and cold-responsive ([2]; 27 of 170 DiI-labeled cells, menthol 100 μM, cold 26 to 19° C.): 16%
- DiI-labeled cells showing response to menthol ([2]; menthol 100 μM, 20 s, 28 of 170 DiI-labeled cells): 17%
- VGNs with increases of intracellular Ca2+ ([2]; menthol 100 μM, 20 s, 116/1638 cells, DiI-labeled and non-labeled, response ΔF/F0 >0.1): 7%
- membrane potential after depolarization by menthol ([3]; menthol 100 μM, 20 s, current-clamp, from resting potential 60±0.6 mV, n=4): 38±1.5 mV
- menthol-evoked inward current ([3]; menthol 100 μM, 20 s, voltage-clamp, held at −70 mV, n=7): 191±29 pA
- action potential firing ([3]; menthol 100 μM, current-clamp): action potentials elicited
- action potential firing ([3]; menthol 100 μM, current-clamp, listed as Menthol): caused action potential firing
- reversal potential of menthol-evoked currents ([3]; voltage ramp, strong outward rectification, n=4): −2±0.3 mV
- respiratory reaction on inhalation ([4]; menthol 1 μM): respiratory reaction is not obvious
- respiratory reaction on inhalation ([4]; menthol 1 mM, n=3): results in a breathing difficulty

Compound: CC(C)(C)c1ccc(NC(=S)N2CCN(c3ncccc3Cl)CC2)cc1 [thio-BCTC]
- IC50 [1]: 3.5 ± 1.1 µM

Compound: NGF: nerve growth factor
- TRPM8 receptor expression [5]: up-regulated

Source: patent US20080213248A1, “Methods and Systems for Treating Asthma and Other Respiratory Diseases” (UNIVERSITY OF FLORIDA RESEARCH FOUNDATION, INC., priority 2004, published 2008)
